The assay deals with T1, recombinant human MetAP2 (Homo sapiens, UniProt P50579).
T1 construct: Flag; made in house; host or cells: Sf9 insect cells
T1 sequence (P50579 whole entry): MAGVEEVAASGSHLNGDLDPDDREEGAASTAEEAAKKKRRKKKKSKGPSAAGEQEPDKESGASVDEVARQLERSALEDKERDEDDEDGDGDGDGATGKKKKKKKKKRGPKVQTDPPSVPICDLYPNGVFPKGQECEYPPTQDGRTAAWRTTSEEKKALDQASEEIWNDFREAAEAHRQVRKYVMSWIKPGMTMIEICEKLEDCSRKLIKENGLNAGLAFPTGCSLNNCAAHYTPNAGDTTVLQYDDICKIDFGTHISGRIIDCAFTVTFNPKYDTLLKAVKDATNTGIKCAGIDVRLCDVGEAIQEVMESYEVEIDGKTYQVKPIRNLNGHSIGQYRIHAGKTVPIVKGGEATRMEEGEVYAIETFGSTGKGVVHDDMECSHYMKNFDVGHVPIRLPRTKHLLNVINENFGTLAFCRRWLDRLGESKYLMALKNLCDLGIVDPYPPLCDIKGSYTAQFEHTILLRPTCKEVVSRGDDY
The assay can be described thus: Inhibition of recombinant human MetAP2 activity (MAS substrate, amino acid oxidase/Amplex red fluorescence). As to conditions: manganese enzyme, 30 minutes at 25° C., pH 7.5, 0.75 mM MAS substrate, 1% DMSO; read-out: Activity (MetAP2 IC50 class). It counts as biochemical. The protocol:
Compounds are tested for their capacity to inhibit recombinant human MetAP2 activity using the following assay.
Human recombinant Flag-MetAP2 expressed in Sf9 cells followed by affinity purification and EDTA treatment to remove endogenous active site cation was dialysed against MnCl2 to produce the manganese enzyme used in the assay. The assay was carried out for 30 minutes at 25° C. in 50 mM HEPES buffer containing 100 mM NaCl, pH 7.5 the presence of 0.75 mM Methionine-Alanine-Serine (MAS) substrate and 50 μg/mL amino acid oxidase using a dilution of purified MetAP2 giving approximately 50,000 RFU control activity. Cleavage of the substrate by MetAP2 and oxidation of free methionine by amino acid oxidase was detected and quantified using fluorescence generated by Amplex red (10-acetyl-3,7-dihydroxyphenoxazine) in combination with horseradish peroxidase which detects H2O2 released during the oxidation step. The fluorescent signal was detected using a multiwell fluorimeter. Compounds were diluted in DMSO prior to addition to assay buffer, the final DMSO concentration in the assay being 1%.
The IC50 is defined as the concentration at which a given compound achieves 50% inhibition of control. IC50 values are calculated using the XLfit software package (version 2.0.5).
Regarding `O=S(=O)(Nc1ccc2c(c1-c1nnn[nH]1)CCCC2)c1ccccc1` [N-[1-(1H-Tetrazol-5-yl)-5,6,7,8-tetrahydronaphthalen-2-yl]-benzenesulfonamide], the IC50 is above 1000 nM.
The same measure for `O=S(=O)(Nc1cccc(Br)c1-c1nnn[nH]1)c1ccccc1` [N-[3-Bromo-2-(1H-tetrazol-5-yl)-phenyl]-benzenesulfonamide]: above 1000 nM; for `O=S(=O)(Nc1cccc(C2CC2)c1-c1nnn[nH]1)c1ccccc1` [N-[3-Cyclopropyl-2-(1H-tetrazol-5-yl)-phenyl]-benzenesulfonamide]: below 1000 nM; for `COc1cccc(NS(=O)(=O)c2ccccc2)c1-c1nnn[nH]1` [N-[3-Methoxy-2-(1H-tetrazol-5-yl)-phenyl]-benzenesulfonamide]: below 1000 nM.
The same measure for `Cc1cccc(NS(=O)(=O)c2ccccc2)c1-c1nnn[nH]1` [N-[3-Methyl-2-(1H-tetrazol-5-yl)-phenyl]-benzenesulfonamide]: above 1000 nM.

These data come from patent US9321740B2, “Tetrazole compounds and methods of making and using same” (Zafgen, Inc., priority 2011, dated 2016).
